Columns and labels:
tumors = assay: In vivo anti-tumor efficacy, intratumoral IL-2 plasmid compositions; design: species or system mice; settings: for growth of tumors in mice: compositions with IL-2 plasmid DNA and DOPE, given directly into the tumor; for size of tumors, average: with DNA and DOPE; for size of tumors, average / reduction of growth rates of tumors: 1:2 -/+ charge ratio; for reduction of growth rates of tumors: with IL-2 plasmid DNA and DOPE
Text: Compositions comprising HGDs of the invention, plasmid DNA comprising an IL-2 gene, and DOPE efficaciously retarded the growth of tumors in mice. These model-tumor studies involved implanting a tumor into mice, administering a composition of the invention directly into the tumor, and monitoring the growth of tumors in the mice. A protocol for such a procedure is taught in U.S. application Ser. No. 60/039,709, Raiston et al., “IL-2 Gene Expression and Delivery Systems and Uses,” filed Feb. 10, 1997, incorportated herein by reference in its entirety including any figures, tables, and drawings.

cells [1] = assay: Cell toxicity by total cellular protein synthesis (Bio-Rad Protein Assay) or cell proliferation (XTT); format: cell-based
Text: Compositions comprising HGDs of the invention, plasmid DNA, and a co-lipid such as DOPE or cholesterol were not appreciably toxic to cells. Toxicity measurements were based upon total cellular protein synthesis (Bio-Rad Protein Assay) or cell proliferation (Cell-Proliferation Kit-XTT, Boehringer Mannheim).

[2] = tested on: established cell lines and primary neuronal cultures; settings: cited from earlier work
cells [3] = assay: Transfection efficiency: IL-2 expressed by cells given HGD/IL-2 plasmid compositions; format: cell-based; settings: for IL-2 expression by cells: 0.2 μg IL-2 plasmid, cholesterol or DOPE co-lipid, 48 hours
Experimental: HGDs of the invention formed DNA/HGD complexes that efficiently delivered DNA plasmids to cells. The transfection efficiency was measured after compositions comprising HGDs of the invention, 0.2 μg of DNA plasmids comprising a gene encoding IL-2, and either cholesterol or DOPE as a co-lipid were incubated with cells for 48 hours. The amount of IL-2 expressed by cells administered the compositions was quantified using by an assay disclosed in U.S. application Ser. No. 60/039,709, Raiston et al., “IL-2 Gene Expression and Delivery Systems and Uses,” filed Feb. 10, 1997, incorportated herein by reference in its entirety including any figures, tables, and drawings.

SCCVII tumors = assay: CAT reporter gene expression after injection of lipid/DNA complexes into tumors; format: in vivo; settings: complex with CAT DNA plasmid injected into SCCVII tumors; 10% lactose
Experimental: A variety of HGD/DNA complexes were injected into SCCVII tumors. […] Other lipophilic molecules included DOTMA complexed with cholesterol, DOTIM complexed with DOPE and cholesterol, MMCE complexed with DOPE and cholesterol and DiP-PE, EPMC complexed with DOPE and cholesterol. All complexes comprised 10% lactose.

Q: With CCCCCCCCCCCCCCCCO[C@@H]1OC(CO)[C@@H](O)C(O)C1N (stereo partly drawn) [MPG, 1-mono-palmityl-glucosamine] as the compound, how does the “growth of tumors in mice” value (tumors) read?
A: Its value is “significantly reduced the growth of tumors”.

Q: And the “size of tumors, average” value (tumors; thirteen days, untreated approximately 1600)?
A: The value was “less than 1200 cubic millimeters”.

Q: What about the “reduction of growth rates of tumors” value (tumors; after thirteen days) of the same compound?
A: Its value is “more than 25%”.

Q: And the “health of cells compared with LipofectAMINE liposome compositions” value (cells [1])?
A: The value was “healthier”.

Q: With CCCCCCCCCCCCCCCC(=O)OCC(COP(=O)(O)OCCNC(=O)C(CCCNCCCN)NCCCN)OC(=O)CCCCCCCCCCCCCCC (stereo not drawn) [DPPES] as the compound, how does the “transfection efficiency relative to calcium phosphate” value [2] read?
A: The value was “more efficiently than calcium phosphate by at least two orders of magnitude”.

Q: With CCCCCCCC/C=C\CCCCCCCCO[C@@H]1OC(CO)[C@@H](O)C(O)C1N (stereo partly drawn) [MOG, 1-mono-oleyl-glucosamine] as the compound, how does the “growth of tumors in mice” value (tumors) read?
A: The value was “significantly reduced the growth of tumors”.

Q: What about the “size of tumors, average” value (tumors; nine days, untreated 600) of the same compound?
A: The value was “less than 400 cubic millimeters”.

Q: What about the “reduction of growth rates of tumors” value (tumors; after nine days) of the same compound?
A: The value was “more than 30%”.

Q: And the “IL-2 expression compared with DOTMA liposomes” value (cells [3]; 1:3 charge ratio)?
A: Its value is “as large as the amount of IL-2 expressed by cells administered liposomes comprising an efficient delivery lipid, DOTMA”.

Q: What about the “IL-2 expression by cells” value (cells [3]; -/+ charge ratio 1:0.5) of the same compound?
A: Its value is “not significantly expressed”.

Q: And the “IL-2 expression by cells” value (cells [3]; -/+ charge ratio 1:3)?
A: The value was “significantly expressed”.

Q: What about the “expression and recovery of total protein, of normal protein levels” value (cells [1]; MOG composition contains DOPE, compared with LipofectAMINE composition) of the same compound?
A: The value was “more than 75%”.

Q: What about the “health of cells compared with LipofectAMINE liposome compositions” value (cells [1]) of the same compound?
A: Its value is “healthier”.

Q: What about the “expression of the CAT reporter gene” value (SCCVII tumors) of the same compound?
A: The value was “highest expression of the CAT reporter gene of any of the lipophilic molecule/DNA complexes tested”.

Q: For CCCCCCCCCCCCCCCCCCN(CCCCCCCCCCCCCCCCCC)C(=O)CNC(=O)C(CCCNCCCN)NCCCN (stereo not drawn) [DOGS], which “transfection efficiency relative to calcium phosphate” value [2] is on record?
A: Its value is “more efficiently than calcium phosphate by at least two orders of magnitude”.
